Reference: publication PMC9005681, “Use of AD Informer Set compounds to explore validity of novel targets in Alzheimer's disease pathology” (Alzheimer's & Dementia : Translational Research & Clinical …, 2022)
Where “and” joins values, the source holds several entries; their conditions need not be identical. Equal entries are not always repeated.

Key:
Experiment in all cases: PDSP GPCR panel primary binding assays at 10 μM
Details in all cases: primary assay
[1] = molecular target: T1, cloned human or rodent CNS receptors, channels, and transporters (PDSP panel) (Homo sapiens, UniProt P08912)
T1 construct: expressed in transfected cells
T1 sequence (P08912 1-532): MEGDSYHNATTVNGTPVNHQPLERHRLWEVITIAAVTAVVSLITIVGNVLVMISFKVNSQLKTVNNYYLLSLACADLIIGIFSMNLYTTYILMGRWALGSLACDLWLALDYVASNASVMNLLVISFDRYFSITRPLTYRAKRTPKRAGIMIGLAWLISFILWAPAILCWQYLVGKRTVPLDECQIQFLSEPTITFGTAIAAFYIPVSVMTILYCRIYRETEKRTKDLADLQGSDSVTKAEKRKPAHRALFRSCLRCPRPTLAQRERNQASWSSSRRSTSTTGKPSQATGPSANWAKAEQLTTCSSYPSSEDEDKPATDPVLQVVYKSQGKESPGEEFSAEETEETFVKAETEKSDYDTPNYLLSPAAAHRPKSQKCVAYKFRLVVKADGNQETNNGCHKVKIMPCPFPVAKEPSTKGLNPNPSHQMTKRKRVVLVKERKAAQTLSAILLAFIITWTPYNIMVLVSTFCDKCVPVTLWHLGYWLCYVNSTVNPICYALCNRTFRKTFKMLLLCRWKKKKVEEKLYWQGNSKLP
Protocol: (§1) GPCR panel: Screening against the receptors within the PDSP panel offers an assessment of off-target pharmacological activity at cloned human or rodent CNS receptors, channels, and transporters that could confound CNS-related phenotypes. A total of 46–47 primary binding assays were run in quadruplicate on these compounds at 10 μM, with follow-up secondary binding assays in 11-point dose-response in triplicate for select compounds versus select receptors. Secondary binding assays were executed for all receptors where test compound displaced an average of >50% of radio-labeled standard ligand. As an exception, no secondary assays were carried out for H3, PBR, or GABAA. […]

[2] = molecular target: T2, cloned human or rodent CNS receptors, channels, and transporters (PDSP panel) (Homo sapiens, UniProt P14416)
T2 construct: expressed in transfected cells
T2 sequence (P14416 whole entry): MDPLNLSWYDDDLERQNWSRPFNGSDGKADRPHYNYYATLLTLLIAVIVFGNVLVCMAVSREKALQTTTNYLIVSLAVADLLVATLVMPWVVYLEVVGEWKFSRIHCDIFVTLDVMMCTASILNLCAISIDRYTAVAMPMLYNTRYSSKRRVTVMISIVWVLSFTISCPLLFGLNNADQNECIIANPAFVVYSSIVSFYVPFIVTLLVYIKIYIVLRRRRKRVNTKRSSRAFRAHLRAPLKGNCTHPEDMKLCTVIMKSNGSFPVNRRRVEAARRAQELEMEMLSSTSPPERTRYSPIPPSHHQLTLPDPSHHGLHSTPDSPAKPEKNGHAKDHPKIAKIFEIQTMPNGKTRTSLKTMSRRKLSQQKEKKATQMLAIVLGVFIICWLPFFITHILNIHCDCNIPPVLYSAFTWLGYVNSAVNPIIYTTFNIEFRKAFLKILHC
Protocol: as §1

[3] = molecular target: T3, cloned human or rodent CNS receptors, channels, and transporters (PDSP panel) (Homo sapiens, UniProt P21728)
T3 construct: expressed in transfected cells
T3 sequence (P21728 whole entry): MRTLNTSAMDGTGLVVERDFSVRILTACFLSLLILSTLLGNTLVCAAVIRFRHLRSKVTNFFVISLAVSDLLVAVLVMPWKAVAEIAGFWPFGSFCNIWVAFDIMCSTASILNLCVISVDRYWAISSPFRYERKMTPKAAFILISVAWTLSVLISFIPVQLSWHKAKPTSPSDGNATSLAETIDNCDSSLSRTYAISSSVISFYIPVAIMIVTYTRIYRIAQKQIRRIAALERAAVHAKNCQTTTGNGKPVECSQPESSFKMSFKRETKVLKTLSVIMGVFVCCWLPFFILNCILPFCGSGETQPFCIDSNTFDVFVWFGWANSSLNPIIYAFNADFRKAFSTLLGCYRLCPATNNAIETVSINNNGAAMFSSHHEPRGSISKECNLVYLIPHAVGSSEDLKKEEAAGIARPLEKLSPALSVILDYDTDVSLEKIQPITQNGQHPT
Protocol: as §1

[4] = molecular target: T4, cloned human or rodent CNS receptors, channels, and transporters (PDSP panel) (Homo sapiens, UniProt P23975)
T4 construct: expressed in transfected cells
T4 sequence (P23975 whole entry): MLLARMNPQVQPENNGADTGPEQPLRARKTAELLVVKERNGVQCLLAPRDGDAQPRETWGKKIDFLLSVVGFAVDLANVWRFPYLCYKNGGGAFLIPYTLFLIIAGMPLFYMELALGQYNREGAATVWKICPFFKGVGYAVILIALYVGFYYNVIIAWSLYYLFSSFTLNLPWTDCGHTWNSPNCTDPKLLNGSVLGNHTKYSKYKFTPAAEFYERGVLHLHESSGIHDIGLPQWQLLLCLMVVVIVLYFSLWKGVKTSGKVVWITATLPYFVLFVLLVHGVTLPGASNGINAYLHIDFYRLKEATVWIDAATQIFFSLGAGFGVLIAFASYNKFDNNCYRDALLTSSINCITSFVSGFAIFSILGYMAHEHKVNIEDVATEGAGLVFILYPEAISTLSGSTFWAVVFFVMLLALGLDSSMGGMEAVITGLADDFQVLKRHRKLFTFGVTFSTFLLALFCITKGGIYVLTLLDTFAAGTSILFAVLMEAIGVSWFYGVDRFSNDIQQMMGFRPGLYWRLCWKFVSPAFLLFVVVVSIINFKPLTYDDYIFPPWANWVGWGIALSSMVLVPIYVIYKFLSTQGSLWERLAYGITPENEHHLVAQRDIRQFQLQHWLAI
Protocol: as §1

[5] = molecular target: T5, cloned human or rodent CNS receptors, channels, and transporters (PDSP panel) (Homo sapiens, UniProt P28335)
T5 construct: expressed in transfected cells
T5 sequence (P28335 33-458): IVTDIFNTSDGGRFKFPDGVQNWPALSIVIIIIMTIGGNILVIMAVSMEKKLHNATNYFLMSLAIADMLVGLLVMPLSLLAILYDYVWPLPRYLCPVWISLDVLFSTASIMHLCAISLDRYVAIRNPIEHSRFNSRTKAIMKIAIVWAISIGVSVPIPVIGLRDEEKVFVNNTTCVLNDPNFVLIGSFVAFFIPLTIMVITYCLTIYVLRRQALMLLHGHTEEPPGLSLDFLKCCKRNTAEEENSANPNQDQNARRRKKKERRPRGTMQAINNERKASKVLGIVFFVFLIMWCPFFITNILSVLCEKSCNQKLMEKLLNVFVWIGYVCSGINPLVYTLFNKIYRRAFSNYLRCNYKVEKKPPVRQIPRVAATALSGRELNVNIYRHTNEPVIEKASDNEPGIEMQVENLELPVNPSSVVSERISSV
Protocol: as §1

[6] = molecular target: T6, cloned human or rodent CNS receptors, channels, and transporters (PDSP panel) (Homo sapiens, UniProt P28566)
T6 construct: expressed in transfected cells
T6 sequence (P28566 whole entry): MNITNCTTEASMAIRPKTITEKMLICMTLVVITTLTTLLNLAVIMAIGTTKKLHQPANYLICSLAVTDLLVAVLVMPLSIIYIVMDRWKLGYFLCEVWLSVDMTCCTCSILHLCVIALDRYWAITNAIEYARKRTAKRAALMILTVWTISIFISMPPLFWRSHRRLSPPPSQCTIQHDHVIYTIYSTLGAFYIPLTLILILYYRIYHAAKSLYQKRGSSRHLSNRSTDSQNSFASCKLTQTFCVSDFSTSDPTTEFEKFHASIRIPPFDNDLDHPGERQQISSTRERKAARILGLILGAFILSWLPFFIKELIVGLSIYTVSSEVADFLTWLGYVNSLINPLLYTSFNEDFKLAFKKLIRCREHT
Protocol: as §1

[7] = molecular target: T7, cloned human or rodent CNS receptors, channels, and transporters (PDSP panel) (Homo sapiens, UniProt P35462)
T7 construct: expressed in transfected cells
T7 sequence (P35462 whole entry): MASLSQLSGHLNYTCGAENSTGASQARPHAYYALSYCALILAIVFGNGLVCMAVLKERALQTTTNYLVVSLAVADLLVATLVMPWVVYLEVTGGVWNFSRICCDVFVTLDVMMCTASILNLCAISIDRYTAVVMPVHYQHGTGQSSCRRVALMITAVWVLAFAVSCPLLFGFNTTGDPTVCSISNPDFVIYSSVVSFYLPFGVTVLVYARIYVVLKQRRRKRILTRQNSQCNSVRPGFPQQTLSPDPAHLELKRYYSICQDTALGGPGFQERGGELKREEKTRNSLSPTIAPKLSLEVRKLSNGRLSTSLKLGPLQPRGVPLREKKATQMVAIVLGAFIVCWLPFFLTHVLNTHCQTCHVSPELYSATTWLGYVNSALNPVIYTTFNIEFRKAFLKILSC
Protocol: as §1

[8] = molecular target: T8, cloned human or rodent CNS receptors, channels, and transporters (PDSP panel) (Homo sapiens, UniProt P41145)
T8 construct: expressed in transfected cells
T8 sequence (P41145 whole entry): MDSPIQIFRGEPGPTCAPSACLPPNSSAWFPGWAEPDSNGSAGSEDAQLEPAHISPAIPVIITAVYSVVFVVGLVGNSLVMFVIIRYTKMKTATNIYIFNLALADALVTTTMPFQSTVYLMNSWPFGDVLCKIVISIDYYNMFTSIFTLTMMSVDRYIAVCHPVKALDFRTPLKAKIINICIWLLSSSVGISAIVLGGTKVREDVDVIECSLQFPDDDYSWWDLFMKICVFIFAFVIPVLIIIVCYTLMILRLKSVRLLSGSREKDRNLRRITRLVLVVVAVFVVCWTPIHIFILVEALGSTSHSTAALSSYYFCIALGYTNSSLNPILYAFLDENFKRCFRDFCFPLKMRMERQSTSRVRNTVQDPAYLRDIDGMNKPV
Protocol: as §1

[9] = molecular target: T9, cloned human or rodent CNS receptors, channels, and transporters (PDSP panel) (Homo sapiens, UniProt P41595)
T9 construct: expressed in transfected cells
T9 sequence (P41595 whole entry): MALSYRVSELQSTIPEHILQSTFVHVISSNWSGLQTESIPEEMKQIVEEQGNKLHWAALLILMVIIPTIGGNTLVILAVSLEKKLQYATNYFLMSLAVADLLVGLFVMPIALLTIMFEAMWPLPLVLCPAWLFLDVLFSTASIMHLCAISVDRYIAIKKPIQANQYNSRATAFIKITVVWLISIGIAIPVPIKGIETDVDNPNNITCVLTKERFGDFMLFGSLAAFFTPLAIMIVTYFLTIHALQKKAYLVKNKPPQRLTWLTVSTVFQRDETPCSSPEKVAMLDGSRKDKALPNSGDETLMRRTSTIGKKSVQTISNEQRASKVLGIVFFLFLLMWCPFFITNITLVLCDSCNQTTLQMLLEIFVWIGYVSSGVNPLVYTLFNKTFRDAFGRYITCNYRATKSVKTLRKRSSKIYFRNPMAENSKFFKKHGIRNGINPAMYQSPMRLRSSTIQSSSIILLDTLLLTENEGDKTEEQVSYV
Protocol: as §1

[10] = molecular target: T10, cloned human or rodent CNS receptors, channels, and transporters (PDSP panel) (Homo sapiens, UniProt P50406)
T10 construct: expressed in transfected cells
T10 sequence (P50406 whole entry): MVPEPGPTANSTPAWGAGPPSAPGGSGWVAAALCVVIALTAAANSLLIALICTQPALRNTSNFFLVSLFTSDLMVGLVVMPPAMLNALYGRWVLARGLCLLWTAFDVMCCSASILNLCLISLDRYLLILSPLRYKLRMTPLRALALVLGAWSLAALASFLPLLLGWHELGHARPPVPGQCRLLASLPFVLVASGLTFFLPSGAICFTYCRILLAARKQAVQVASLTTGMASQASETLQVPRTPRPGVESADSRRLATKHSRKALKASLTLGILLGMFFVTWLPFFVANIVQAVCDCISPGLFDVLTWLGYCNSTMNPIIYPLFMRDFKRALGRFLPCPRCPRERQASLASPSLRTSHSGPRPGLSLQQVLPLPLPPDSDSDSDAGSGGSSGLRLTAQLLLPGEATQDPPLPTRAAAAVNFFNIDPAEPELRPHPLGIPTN
Protocol: as §1

[11] = molecular target: T11, cloned human or rodent CNS receptors, channels, and transporters (PDSP panel) (Rattus norvegicus, UniProt P16257)
T11 construct: expressed in transfected cells
Protocol: as §1

O=C(NC1CC1)C(=O)C(Cc1ccccc1)NC(=O)[C@H]1CCC(=O)N1Cc1ccccc1 (stereo partly drawn) [UNC10302676A, ABT-957 (Alicapistat)]
Mean % ([1]; M5, mean inhibition): -3.53%
Inhibition 1 ([1]; M5, replicate 1): 2.18%
Inhibition 2 ([1]; M5, replicate 2): -7.48%
Inhibition 3 ([1]; M5, replicate 3): -4.57%
Inhibition 4 ([1]; M5, replicate 4): -4.26%
Mean % ([2]; D2, mean inhibition): -21.21%
Inhibition 1 ([2]; D2, replicate 1): -14.25%
Inhibition 2 ([2]; D2, replicate 2): -31.51%
Inhibition 3 ([2]; D2, replicate 3): -11.38%
Inhibition 4 ([2]; D2, replicate 4): -27.71%
Mean % ([3]; D1, mean inhibition): 0%
Inhibition 1 ([3]; D1, replicate 1): 13.52%
Inhibition 2 ([3]; D1, replicate 2): -11.9%
Inhibition 3 ([3]; D1, replicate 3): -21.45%
Inhibition 4 ([3]; D1, replicate 4): 19.83%
Inhibition 1 ([4]; NET, replicate 1): 22.45% and -0.84%
Inhibition 2 ([4]; NET, replicate 2): -3.8% and -22.08%
Inhibition 3 ([4]; NET, replicate 3): -17.85% and -14.66%
Inhibition 4 ([4]; NET, replicate 4): -11.29% and -22.96%
Mean % ([5]; 5-HT2C, mean inhibition): -3.07%
Inhibition 1 ([5]; 5-HT2C, replicate 1): 14.23%
Inhibition 2 ([5]; 5-HT2C, replicate 2): -14.23%
Inhibition 3 ([5]; 5-HT2C, replicate 3): -2.94%
Inhibition 4 ([5]; 5-HT2C, replicate 4): -9.33%
Mean % ([6]; 5-HT1E, mean inhibition): -4.73%
Inhibition 1 ([6]; 5-HT1E, replicate 1): 3.28%
Inhibition 2 ([6]; 5-HT1E, replicate 2): -0.45%
Inhibition 3 ([6]; 5-HT1E, replicate 3): -9.69%
Inhibition 4 ([6]; 5-HT1E, replicate 4): -12.07%
Mean % ([7]; D3, mean inhibition): 10.85%
Inhibition 1 ([7]; D3, replicate 1): 10.26%
Inhibition 2 ([7]; D3, replicate 2): -6.41%
Inhibition 3 ([7]; D3, replicate 3): 23.48%
Inhibition 4 ([7]; D3, replicate 4): 16.06%
Mean % ([8]; KOR, mean inhibition): -23.29%
Inhibition 1 ([8]; KOR, replicate 1): -17.69%
Inhibition 2 ([8]; KOR, replicate 2): -22.73%
Inhibition 3 ([8]; KOR, replicate 3): -22.5%
Inhibition 4 ([8]; KOR, replicate 4): -30.23%
Mean % ([9]; 5-HT2B, mean inhibition): -32.15%
Inhibition 1 ([9]; 5-HT2B, replicate 1): -14.32%
Inhibition 2 ([9]; 5-HT2B, replicate 2): -33.19%
Inhibition 3 ([9]; 5-HT2B, replicate 3): -45.78%
Inhibition 4 ([9]; 5-HT2B, replicate 4): -35.29%
Mean % ([10]; 5-HT6, mean inhibition): -7.55%
Inhibition 1 ([10]; 5-HT6, replicate 1): 7.34%
Inhibition 2 ([10]; 5-HT6, replicate 2): -8.22%
Inhibition 3 ([10]; 5-HT6, replicate 3): -20.76%
Inhibition 4 ([10]; 5-HT6, replicate 4): -8.54%
Inhibition 1 ([11]; PBR, replicate 1): 2.97% and 17.9%
Inhibition 2 ([11]; PBR, replicate 2): -4.68% and 2.11%
Inhibition 3 ([11]; PBR, replicate 3): 1.91% and 4.11%
Inhibition 4 ([11]; PBR, replicate 4): -8.81% and 7.78%

c1cn2cc(-c3ccc4cn[nH]c4c3)nc(Nc3ccc(N4CCOCC4)cc3)c2n1 [UNC10302678A, Entospletinib (GS-9973)]
Inhibition 1 ([1]; Receptor M5, 10 μM): -6.98%
Inhibition 2 ([1]; Receptor M5, 10 μM): -7.99%
Inhibition 3 ([1]; Receptor M5, 10 μM): 1.47%
Inhibition 4 ([1]; Receptor M5, 10 μM): 5.9%
Mean % ([1]; Receptor M5, 10 μM, mean of Inhibition 1-4): -1.9%
Inhibition 1 ([2]; Receptor D2, 10 μM): 15.89%
Inhibition 2 ([2]; Receptor D2, 10 μM): 4.51%
Inhibition 3 ([2]; Receptor D2, 10 μM): -1.13%
Inhibition 4 ([2]; Receptor D2, 10 μM): -7.35%
Mean % ([2]; Receptor D2, 10 μM, mean of Inhibition 1-4): 2.98%
Inhibition 1 ([3]; Receptor D1, 10 μM): 2.51%
Inhibition 2 ([3]; Receptor D1, 10 μM): -3%
Inhibition 3 ([3]; Receptor D1, 10 μM): -32.95%
Inhibition 4 ([3]; Receptor D1, 10 μM): 7.37%
Mean % ([3]; Receptor D1, 10 μM, mean of Inhibition 1-4): -6.52%
Inhibition 1 ([4]; Receptor NET, 10 μM): -3.87% and -2.7%
Inhibition 2 ([4]; Receptor NET, 10 μM): -11.22% and -16.36%
Inhibition 3 ([4]; Receptor NET, 10 μM): -0.44% and -2.13%
Mean % ([4]; Receptor NET, 10 μM, mean of Inhibition 1-4): 1.02% and -6.36%
Inhibition 1 ([5]; Receptor 5-HT2C, 10 μM): -15.71%
Inhibition 2 ([5]; Receptor 5-HT2C, 10 μM): 5.4%
Inhibition 3 ([5]; Receptor 5-HT2C, 10 μM): -17.18%
Inhibition 4 ([5]; Receptor 5-HT2C, 10 μM): -19.14%
Mean % ([5]; Receptor 5-HT2C, 10 μM, mean of Inhibition 1-4): -11.66%
Inhibition 1 ([6]; Receptor 5-HT1E, 10 μM): -2.53%
Inhibition 2 ([6]; Receptor 5-HT1E, 10 μM): -10.95%
Inhibition 3 ([6]; Receptor 5-HT1E, 10 μM): -16.42%
Inhibition 4 ([6]; Receptor 5-HT1E, 10 μM): -0.46%
Mean % ([6]; Receptor 5-HT1E, 10 μM, mean of Inhibition 1-4): -7.59%
Inhibition 1 ([7]; Receptor D3, 10 μM): -22.2%
Inhibition 2 ([7]; Receptor D3, 10 μM): -12.17%
Inhibition 3 ([7]; Receptor D3, 10 μM): 0%
Inhibition 4 ([7]; Receptor D3, 10 μM): -11.01%
Mean % ([7]; Receptor D3, 10 μM, mean of Inhibition 1-4): -11.35%
Inhibition 1 ([8]; Receptor KOR, 10 μM): -28.1%
Inhibition 2 ([8]; Receptor KOR, 10 μM): -33.36%
Inhibition 3 ([8]; Receptor KOR, 10 μM): -49.37%
Inhibition 4 ([8]; Receptor KOR, 10 μM): -45.23%
Mean % ([8]; Receptor KOR, 10 μM, mean of Inhibition 1-4): -39.02%
Inhibition 1 ([9]; Receptor 5-HT2B, 10 μM): 61.2%
Inhibition 2 ([9]; Receptor 5-HT2B, 10 μM): 0.79%
Inhibition 3 ([9]; Receptor 5-HT2B, 10 μM): -21.45%
Inhibition 4 ([9]; Receptor 5-HT2B, 10 μM): 15.05%
Mean % ([9]; Receptor 5-HT2B, 10 μM, mean of Inhibition 1-4): 13.9%
Inhibition 1 ([10]; Receptor 5-HT6, 10 μM): -41.25%
Inhibition 2 ([10]; Receptor 5-HT6, 10 μM): -29.65%
Inhibition 3 ([10]; Receptor 5-HT6, 10 μM): -11.39%
Inhibition 4 ([10]; Receptor 5-HT6, 10 μM): -15.68%
Mean % ([10]; Receptor 5-HT6, 10 μM, mean of Inhibition 1-4): -24.49%
Inhibition 1 ([11]; Receptor PBR, 10 μM): 4.64% and -2.11%
Inhibition 4 ([11]; Receptor PBR, 10 μM): 21.43% and 15.83%
Mean % ([11]; Receptor PBR, 10 μM, mean of Inhibition 1-4): 13.23% and 8.44%
